In brackets after ≈: the same amount, converted by molar mass. Values belong to the compound of their own block, whether it stands above or below them.
What was measured:
[1] = biological target: Cyclin-dependent kinase 2/cyclin E1 (Homo sapiens, UniProt P24941); assay: Inhibition of recombinant human full length N-terminal GST-tagged CDK2 (M1 to L298 residues)/CyclinE1 (M1 to A395 residues) expressed in baculovirus infected Sf9 insect cells using histone H1 as substrate by [gamma33P]ATP-based assay
K562 [2] = assay: Growth inhibition of human K562 cells after 72 hrs by Calcein AM dye based fluorescence assay; assay type: functional; conditions: K562, 72 h
MCF7 = assay: Growth inhibition of human MCF7 cells after 72 hrs by Calcein AM dye based fluorescence assay; assay type: functional; conditions: MCF7, 72 h
CDK6/cyclin D1 = CDK6/cyclin D1 (Homo sapiens, UniProt Q00534); assay: Inhibition of recombinant human full length N-terminal GST-tagged CDK6 (M1 to A326 residues)/CyclinD1 (Q4 to I295 residues) expressed in Sf9 insect cells
Sequence of CDK6/cyclin D1 (P24385 whole entry, the tested form may be a part): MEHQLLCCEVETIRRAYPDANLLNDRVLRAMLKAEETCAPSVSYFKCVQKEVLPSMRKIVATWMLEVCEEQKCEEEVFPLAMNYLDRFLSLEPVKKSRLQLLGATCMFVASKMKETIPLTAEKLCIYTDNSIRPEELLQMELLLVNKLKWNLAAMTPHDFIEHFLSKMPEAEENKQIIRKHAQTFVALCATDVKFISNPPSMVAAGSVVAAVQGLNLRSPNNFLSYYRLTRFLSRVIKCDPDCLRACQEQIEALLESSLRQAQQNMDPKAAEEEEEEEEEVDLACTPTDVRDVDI
Sequence of CDK6/cyclin D1 (Q00534 whole entry, the tested form may be a part): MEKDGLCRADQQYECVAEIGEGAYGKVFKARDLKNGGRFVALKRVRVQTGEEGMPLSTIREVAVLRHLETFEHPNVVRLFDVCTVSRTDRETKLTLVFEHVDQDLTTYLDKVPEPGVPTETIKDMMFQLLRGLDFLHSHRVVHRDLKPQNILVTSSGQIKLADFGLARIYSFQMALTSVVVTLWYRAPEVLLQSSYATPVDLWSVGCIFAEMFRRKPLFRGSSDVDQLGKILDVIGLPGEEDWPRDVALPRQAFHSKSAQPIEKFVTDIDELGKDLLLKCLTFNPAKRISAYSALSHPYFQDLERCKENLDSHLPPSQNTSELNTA

CDK9/cyclin T1 = CDK9/cyclin T1 (Homo sapiens, UniProt P50750); assay: Inhibition of recombinant human full length N-terminal GST/His6-tagged CDK9 (M1 to F372 residues)/N-terminal His6-tagged CyclinT1 (M1 to K726 residues) expressed in Sf9 insect cells
Sequence of CDK9/cyclin T1 (O60563 whole entry, the tested form may be a part): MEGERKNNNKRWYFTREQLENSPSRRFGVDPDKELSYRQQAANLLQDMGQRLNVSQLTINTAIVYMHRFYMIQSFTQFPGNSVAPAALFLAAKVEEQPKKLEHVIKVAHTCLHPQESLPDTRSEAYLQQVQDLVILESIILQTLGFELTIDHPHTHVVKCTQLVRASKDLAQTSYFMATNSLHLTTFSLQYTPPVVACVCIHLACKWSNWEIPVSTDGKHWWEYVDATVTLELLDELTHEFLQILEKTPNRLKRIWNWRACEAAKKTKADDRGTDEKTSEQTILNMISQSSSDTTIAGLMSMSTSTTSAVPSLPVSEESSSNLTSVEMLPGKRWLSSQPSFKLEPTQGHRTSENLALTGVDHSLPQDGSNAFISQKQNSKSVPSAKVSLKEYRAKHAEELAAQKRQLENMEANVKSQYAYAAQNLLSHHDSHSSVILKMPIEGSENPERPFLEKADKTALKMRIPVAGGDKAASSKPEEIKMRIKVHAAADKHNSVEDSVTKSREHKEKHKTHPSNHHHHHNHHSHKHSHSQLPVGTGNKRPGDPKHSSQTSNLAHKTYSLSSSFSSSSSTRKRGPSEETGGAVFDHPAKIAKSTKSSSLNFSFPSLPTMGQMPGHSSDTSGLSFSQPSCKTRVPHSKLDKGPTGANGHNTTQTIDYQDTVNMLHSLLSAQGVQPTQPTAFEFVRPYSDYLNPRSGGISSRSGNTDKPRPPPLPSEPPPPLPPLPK
Sequence of CDK9/cyclin T1 (P50750 whole entry, the tested form may be a part): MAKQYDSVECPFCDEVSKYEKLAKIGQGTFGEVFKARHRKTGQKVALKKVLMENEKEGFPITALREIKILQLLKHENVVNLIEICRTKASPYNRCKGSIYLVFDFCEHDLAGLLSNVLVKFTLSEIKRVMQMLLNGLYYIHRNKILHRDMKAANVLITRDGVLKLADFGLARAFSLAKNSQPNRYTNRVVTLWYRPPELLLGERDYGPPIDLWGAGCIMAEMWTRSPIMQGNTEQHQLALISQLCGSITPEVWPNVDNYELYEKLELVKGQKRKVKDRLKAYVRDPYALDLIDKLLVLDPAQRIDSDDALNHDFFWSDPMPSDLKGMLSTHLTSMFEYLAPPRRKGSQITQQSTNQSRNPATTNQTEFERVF

CDK7/Cyclin H/MNAT1 = CDK7/Cyclin H/MNAT1 (Homo sapiens, UniProt P50613); assay: Inhibition of recombinant human full length N-terminal GST/His6-tagged CDK7 (M1 to F346 residues)/N-terminal His6-tagged CyclinH (M1 to L323 residues)/N-terminal His6-tagged MAT1 (M1 to S306 residues) expressed in Sf9 insect cells
Sequence of CDK7/Cyclin H/MNAT1 (P51946 whole entry, the tested form may be a part): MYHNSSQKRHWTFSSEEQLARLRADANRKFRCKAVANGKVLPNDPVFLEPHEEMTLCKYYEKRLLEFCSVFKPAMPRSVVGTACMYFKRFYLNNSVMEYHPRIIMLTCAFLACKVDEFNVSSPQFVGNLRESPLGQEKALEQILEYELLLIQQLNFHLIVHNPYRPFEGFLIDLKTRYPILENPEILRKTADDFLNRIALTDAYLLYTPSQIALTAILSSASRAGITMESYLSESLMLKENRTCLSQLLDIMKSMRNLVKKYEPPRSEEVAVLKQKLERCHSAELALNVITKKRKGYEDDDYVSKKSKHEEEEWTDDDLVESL
Sequence of CDK7/Cyclin H/MNAT1 (P50613 whole entry, the tested form may be a part): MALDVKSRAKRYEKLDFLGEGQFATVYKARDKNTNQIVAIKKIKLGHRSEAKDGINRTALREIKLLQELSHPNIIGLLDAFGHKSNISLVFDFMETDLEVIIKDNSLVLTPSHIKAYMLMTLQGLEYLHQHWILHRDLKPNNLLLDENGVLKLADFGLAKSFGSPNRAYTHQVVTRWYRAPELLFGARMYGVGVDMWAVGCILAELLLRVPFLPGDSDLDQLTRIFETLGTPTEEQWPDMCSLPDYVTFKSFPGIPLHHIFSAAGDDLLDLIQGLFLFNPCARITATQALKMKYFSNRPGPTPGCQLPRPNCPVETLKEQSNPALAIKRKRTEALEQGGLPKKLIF
Sequence of CDK7/Cyclin H/MNAT1 (P51948 whole entry, further chain, the tested form may be a part): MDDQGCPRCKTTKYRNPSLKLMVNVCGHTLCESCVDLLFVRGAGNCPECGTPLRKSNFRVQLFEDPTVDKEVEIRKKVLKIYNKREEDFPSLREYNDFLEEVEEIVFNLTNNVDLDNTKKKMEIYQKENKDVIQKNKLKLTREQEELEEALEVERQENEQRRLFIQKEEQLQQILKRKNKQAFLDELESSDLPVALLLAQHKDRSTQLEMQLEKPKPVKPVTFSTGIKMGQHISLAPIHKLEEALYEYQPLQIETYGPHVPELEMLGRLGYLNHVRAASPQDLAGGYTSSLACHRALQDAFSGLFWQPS

Nicotiana tabacum [3] = assay: Toxicity in Nicotiana tabacum; assay type: organism-based
Nicotiana tabacum [4] = assay: Anticytokinin activity against Nicotiana tabacum; assay type: functional, organism-based
Staphylococcus aureus = assay: Bactericidal activity against Staphylococcus aureus ATCC 6538 by two-fold serial dilution assay; assay type: functional
Pseudomonas aeruginosa [5] = assay: Bactericidal activity against Pseudomonas aeruginosa ATCC 9027 by two-fold serial dilution assay; assay type: functional
Escherichia coli = assay: Bactericidal activity against Escherichia coli NCTC 10418 by two-fold serial dilution assay; assay type: functional
Pseudomonas aeruginosa [6] = assay: Antimicrobial activity against Pseudomonas aeruginosa ATCC 9027 by two-fold serial dilution assay; assay type: functional
Nicotiana tabacum [7] = assay: Growth inhibition of cytokinin-autonomous tobacco cells; assay type: functional; conditions: for TGI: read-out: GI100
Nicotiana tabacum [8] = assay: Growth inhibition of cytokinin-requiring tobacco cells; assay type: functional; conditions: for TGI: read-out: GI100
K562 [9] = assay: Antiproliferative activity against human K562 cells; assay type: functional, cell-based
[10] = biological target: Cyclin-dependent kinase 1/cyclin B1 (Homo sapiens, UniProt P06493); assay: Inhibition of CDK1/CyclinB (unknown origin); assay type: protein-complex assay
Sequence of Cyclin-dependent kinase 1/cyclin B1 (P06493 whole entry): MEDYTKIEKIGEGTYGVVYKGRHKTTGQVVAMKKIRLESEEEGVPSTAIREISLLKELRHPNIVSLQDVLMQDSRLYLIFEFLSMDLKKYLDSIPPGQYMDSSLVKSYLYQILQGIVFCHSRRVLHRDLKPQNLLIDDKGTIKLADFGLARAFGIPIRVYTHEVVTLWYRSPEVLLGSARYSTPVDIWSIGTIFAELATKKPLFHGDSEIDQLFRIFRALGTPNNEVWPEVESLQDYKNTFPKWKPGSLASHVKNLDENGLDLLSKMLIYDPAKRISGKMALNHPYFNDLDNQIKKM
Sequence of Cyclin-dependent kinase 1/cyclin B1 (P14635 whole entry, further chain): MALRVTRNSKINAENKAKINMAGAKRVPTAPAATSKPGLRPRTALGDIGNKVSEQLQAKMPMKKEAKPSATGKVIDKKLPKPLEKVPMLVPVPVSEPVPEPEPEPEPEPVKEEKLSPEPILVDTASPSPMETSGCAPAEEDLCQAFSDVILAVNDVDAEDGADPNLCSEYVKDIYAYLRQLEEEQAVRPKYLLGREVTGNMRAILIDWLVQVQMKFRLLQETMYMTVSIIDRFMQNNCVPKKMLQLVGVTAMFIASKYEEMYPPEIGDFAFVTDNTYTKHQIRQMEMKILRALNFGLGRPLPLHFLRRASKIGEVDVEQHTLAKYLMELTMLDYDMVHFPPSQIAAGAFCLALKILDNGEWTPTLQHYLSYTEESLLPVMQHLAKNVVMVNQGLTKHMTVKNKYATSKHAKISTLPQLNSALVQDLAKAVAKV

Human alphaherpesvirus 1 = assay: Antiviral activity against HSV1 MP infected in African green monkey Vero cells assessed as inhibition of plaque formation after 48 hrs; assay type: functional; conditions: Human alphaherpesvirus 1, MP, read-out: ED50 (the source's name)
Candida albicans [11] = assay: Antimicrobial activity against Candida albicans ATCC 10231 by two-fold serial dilution assay; assay type: functional
Candida albicans [12] = assay: Fungicidal activity against Candida albicans ATCC 10231 by two-fold serial dilution assay; assay type: functional
Semliki Forest virus [13] = assay: Antiviral activity against Semliki forest virus infected in Swiss Webster mouse assessed as mean survival time at 50 mg/kg, ip; assay type: functional
Semliki Forest virus [14] = assay: Antiviral activity against Semliki forest virus infected in Swiss Webster mouse assessed as mean survival time at 200 mg/kg, ip; assay type: functional
Semliki Forest virus [15] = assay: Antiviral activity against Semliki forest virus infected in Swiss Webster mouse assessed as mouse survival at 30 mg/kg, ip measured after 18 to 24 hrs; assay type: functional
Semliki Forest virus [16] = assay: Antiviral activity against Semliki forest virus infected in Swiss Webster mouse assessed as mouse survival at 50 mg/kg, ip measured after 18 to 24 hrs; assay type: functional
Semliki Forest virus [17] = assay: Antiviral activity against Semliki forest virus infected in Swiss Webster mouse assessed as mouse survival at 100 mg/kg, ip measured after 18 to 24 hrs; assay type: functional
Semliki Forest virus [18] = assay: Antiviral activity against Semliki forest virus infected in Swiss Webster mouse assessed as mean survival time at 100 mg/kg, ip; assay type: functional
Semliki Forest virus [19] = assay: Antiviral activity against Semliki forest virus infected in Swiss Webster mouse assessed as mean survival time at 10 mg/kg, ip; assay type: functional
Semliki Forest virus [20] = assay: Antiviral activity against Semliki forest virus infected in Swiss Webster mouse assessed as mouse survival at 200 mg/kg, ip measured after 18 to 24 hrs; assay type: functional
Semliki Forest virus [21] = assay: Antiviral activity against Semliki forest virus infected in Swiss Webster mouse assessed as mean survival time at 30 mg/kg, ip; assay type: functional
Semliki Forest virus [22] = assay: Antiviral activity against Semliki forest virus infected in Swiss Webster mouse assessed as mouse survival at 10 mg/kg, ip measured after 18 to 24 hrs; assay type: functional
[23] = biological target: Cyclin-dependent kinase 4/cyclin D1 (Homo sapiens, UniProt P11802); assay: Inhibition of recombinant human N-terminal GST-tagged CDK4 (S4 to E303 residues)/CyclinD1 (Q4 to I295 residues) expressed in Sf9 insect cells
Sequence of Cyclin-dependent kinase 4/cyclin D1 (P11802 whole entry, the tested form may be a part): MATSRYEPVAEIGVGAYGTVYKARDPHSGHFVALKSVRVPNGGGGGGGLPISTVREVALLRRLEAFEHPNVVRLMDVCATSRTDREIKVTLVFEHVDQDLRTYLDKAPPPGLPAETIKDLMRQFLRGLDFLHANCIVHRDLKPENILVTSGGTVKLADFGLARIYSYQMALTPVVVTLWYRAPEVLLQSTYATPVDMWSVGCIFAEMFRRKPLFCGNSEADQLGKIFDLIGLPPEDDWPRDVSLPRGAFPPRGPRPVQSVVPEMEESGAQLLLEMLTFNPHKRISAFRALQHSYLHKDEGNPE
Sequence of Cyclin-dependent kinase 4/cyclin D1 (P24385 whole entry, further chain, the tested form may be a part): as the sequence (P24385 whole entry, the tested form may be a part) above

Structure (SMILES): CCCCCCNc1ncnc2c(C)n[nH]c12
IC50 (Nicotiana tabacum [3]): 0.5 µM
IC50 (Nicotiana tabacum [4]): 0.03 µM

Structure (SMILES): CC1(C)S[C@@H]2[C@H](NC(=O)[C@H](N)c3ccccc3)C(=O)N2[C@H]1C(=O)O [AMPICILLIN]
MBC (Staphylococcus aureus): 15.6 µg/mL (≈ 44.7 µM)
MBC (Pseudomonas aeruginosa [5]): 500 µg/mL (≈ 1430 µM)
MBC (Escherichia coli): 31.2 µg/mL (≈ 89.4 µM)
MIC (Pseudomonas aeruginosa [6]): 250 µg/mL (≈ 715 µM)

Structure (SMILES): Cc1n[nH]c2c(NCc3ccccc3)ncnc12
GI50 (Nicotiana tabacum [7]): 0.03 µM
TGI (Nicotiana tabacum [7]): 0.1 µM
GI50 (Nicotiana tabacum [8]): 0.04 µM
TGI (Nicotiana tabacum [8]): 0.15 µM

Structure (SMILES): CCCCn1cnc2c(C)nn([C@@H]3O[C@H](CO)[C@@H](O)[C@H]3O)c2c1=O
EC50 (Human alphaherpesvirus 1): 152 µM

Structure (SMILES): O=c1[nH]cnc2c(-c3ccc(Br)cc3)n[nH]c12
MIC (Candida albicans [11]): 250 µg/mL (≈ 859 µM)
MFC (Candida albicans [12]): 250 µg/mL (≈ 859 µM)

Structure (SMILES): CCCCCNc1ncnc2c(C)n[nH]c12
IC50 (Nicotiana tabacum [3]): 0.2 µM
IC50 (Nicotiana tabacum [4]): 0.03 µM
GI50 (Nicotiana tabacum [7]): 0.025 µM
TGI (Nicotiana tabacum [7]): 0.05 µM
GI50 (Nicotiana tabacum [8]): 0.02 µM
TGI (Nicotiana tabacum [8]): 0.05 µM

Structure (SMILES): O=c1[nH]c(=O)n([C@H]2C[C@H](O)[C@@H](CO)O2)cc1I [IDOXURIDINE]
EC50 (Human alphaherpesvirus 1): 1.2 µM

Structure (SMILES): Clc1ccccc1C(c1ccccc1)(c1ccccc1)n1ccnc1 [CLOTRIMAZOLE]
MIC (Candida albicans [11]): 7.81 µg/mL (≈ 22.6 µM)
MFC (Candida albicans [12]): 15.6 µg/mL (≈ 45.3 µM)

Structure (SMILES): Cn1nc([C@@H]2O[C@H](CO)[C@@H](O)[C@H]2O)c2nc(N)[nH]c(=O)c21
MST (Semliki Forest virus [13]): 6 days
MST (Semliki Forest virus [14]): 7 days
survival at 30 mg/kg (Semliki Forest virus [15]): 50%
survival at 50 mg/kg (Semliki Forest virus [16]): 67%
survival at 100 mg/kg (Semliki Forest virus [17]): 67%
MST (Semliki Forest virus [18]): 8 days
MST (Semliki Forest virus [19]): 9.6 days
survival at 200 mg/kg (Semliki Forest virus [20]): 58%
MST (Semliki Forest virus [21]): 9.2 days
survival at 10 mg/kg (Semliki Forest virus [22]): 8%

Structure (SMILES): Nc1nc(=O)c2sc(=O)n([C@@H]3O[C@H](CO)[C@@H](O)[C@H]3O)c2[nH]1 [ISATORIBINE]
survival at 100 mg/kg (Semliki Forest virus [17]): 92%
MST (Semliki Forest virus [18]): 8 days

Structure (SMILES): COc1ccc(Cn2cnc3c(C)nn([C@@H]4O[C@H](CO)[C@@H](O)[C@H]4O)c3c2=O)cc1
EC50 (Human alphaherpesvirus 1): 49.5 µM

Structure (SMILES): Cc1nn([C@@H]2O[C@H](CO)[C@@H](O)[C@H]2O)c2c(=O)n(-c3ccc(Cl)cc3)cnc12
EC50 (Human alphaherpesvirus 1): 50 µM

Structure (SMILES): Cc1n[nH]c2c(NCCC(C)C)ncnc12
IC50 (Nicotiana tabacum [3]): 0.73 µM
IC50 (Nicotiana tabacum [4]): 0.1 µM

Second part, the compound after the results:

IC50 [1]: 0.0105 µM
GI50 (K562 [2]): 9.2 µM
GI50 (MCF7): 2.8 µM
Structure (SMILES): CC[C@H](CO)Nc1nc(NCc2ccccc2N)c2[nH]nc(C(C)C)c2n1

IC50 (CDK6/cyclin D1): > 100 µM
IC50 (CDK9/cyclin T1): > 1 µM
IC50 (CDK7/Cyclin H/MNAT1): > 100 µM
Structure (SMILES): CC(C)c1n[nH]c2c(NCc3ccccc3)nc(NC3CCCCC3N)nc12 (stereo not given)

IC50 (K562 [9]): 54 µM
IC50 [10]: 0.44 µM
Structure (SMILES): CC(C)c1n[nH]c2c(NCc3ccccc3O)ncnc12

IC50 [1]: 0.0153 µM
GI50 (K562 [2]): 22.3 µM
GI50 (MCF7): 10.9 µM
Structure (SMILES): CC[C@@H](CO)Nc1nc(NCc2ccccc2N)c2[nH]nc(C(C)C)c2n1

IC50 (K562 [9]): 163 µM
Structure (SMILES): Cn1cnc2c(NCc3ccccc3)nc(NCCO)nc21 [OLOMOUCINE]

IC50 [1]: 0.0165 µM
GI50 (K562 [2]): 15.5 µM
GI50 (MCF7): 4.4 µM
Structure (SMILES): CC(C)c1n[nH]c2c(NCc3ccccc3N)nc(NC[C@@H](C)O)nc12

IC50 (CDK7/Cyclin H/MNAT1): > 100 µM
IC50 [23]: 6.6 µM
Structure (SMILES): CC(C)c1n[nH]c2c(NCc3ccccc3)nc(NC3CCC(N)CC3)nc12 (stereo not given)

— ChEMBL document CHEMBL4184194, “An appraisal on synthetic and pharmaceutical perspectives of pyrazolo[4,3-d]pyrimidine scaffold” (Bioorg Med Chem, 2018)
